IC50 and IC90 data for 28 compounds are collected here from ChEMBL document CHEMBL4483862, “Open-source discovery of chemical leads for next-generation chemoprotective antimalarials” (2018).

pIC50: −log10 of the molar value.

The subject of this assay is Plasmodium berghei. Put plainly: Luciferase/luciferin-expressing antifolate-resistant parasites were used to infect a culture of HepG2 cells that were pre-incubated with compounds. Infected hepatocytes emit light due to the luciferase reaction. Assay results are presented as the percent inhibition of light emission compared to control. […]. Type of assay: functional. The following applies: sporozoite; for IC90: read-out: LUCIFERASE INFECTION ASSAY - IC90.

Regarding `N#Cc1c(SCc2ccccc2)nc2c(c1-c1cccs1)CCCC2`, the IC90 (in general, the point of the concentration-response curve where the effect stands at 90%) is > 9.1 µM. Further, for the setting “FFLUC_HILL_SLOPE 16.1, FFLUC_R_SQUARED 0.0835, PBLUC_HILL_SLOPE 1.89, PBLUC_R_SQUARED 0.544, read-out: LUCIFERASE INFECTION ASSAY - IC50”, the pIC50 (in general, −log10 of the IC50, conventionally taken in molar units) is 5.46.

Take `CNC(=O)NC(=O)COc1ccccc1C#N`: the IC90 is > 10 µM. Also, the pIC50 (FFLUC_HILL_SLOPE 16.2, FFLUC_R_SQUARED 0.422, read-out: LUCIFERASE INFECTION ASSAY - IC50) is < 5.00.

In the case of `Cc1nc(SCC(=O)Nc2nc(Br)sc2Cc2ccc([N+](=O)[O-])cc2)sc1Cc1ccccc1`, the 90% effect concentration (IC90) was > 10 µM. Also, the pIC50 (FFLUC_HILL_SLOPE 16.2, FFLUC_R_SQUARED 0.412, read-out: LUCIFERASE INFECTION ASSAY - IC50) was < 5.00.

For the compound `O=C(Nc1cc(Cl)ccc1N1CCOCC1)c1ccccc1NS(=O)(=O)c1ccc(Br)s1`, the IC90 is 1.16 µM. The negative logarithm of the IC50 (pIC50) (FFLUC_HILL_SLOPE 16.2, FFLUC_R_SQUARED 0.517, HEPG2TOX_HILL_SLOPE 1.46, HEPG2TOX_R_SQUARED 0.905, PBLUC_HILL_SLOPE 14.3, PBLUC_R_SQUARED 0.479, read-out: LUCIFERASE INFECTION ASSAY - IC50) is 6.00.

With `Cc1ccc(/C=C/C(=O)NC2CCCc3ccccc32)o1` (stereo unspecified), the concentration for an effect of 90% (IC90) was > 10 µM. For the same compound, the negative logarithm of the IC50 (pIC50) (FFLUC_HILL_SLOPE 16.2, FFLUC_R_SQUARED 0.0896, read-out: LUCIFERASE INFECTION ASSAY - IC50) is < 5.00.

For `CCCNC(=O)c1c(NC(=O)c2ccc(Cl)cc2Cl)nc2ccccn12`, the 90% effect concentration (IC90) amounted to 2.94 µM. Also, the negative-log IC50 (pIC50) (FFLUC_HILL_SLOPE 16.3, FFLUC_R_SQUARED 0.135, HEPG2TOX_HILL_SLOPE 2.05, HEPG2TOX_R_SQUARED 0.922, PBLUC_HILL_SLOPE 37.2, PBLUC_R_SQUARED 0.437, read-out: LUCIFERASE INFECTION ASSAY - IC50) was 5.56.

As to `Cc1cc(/C=N/Nc2ccc(Cl)nn2)c(C)n1-c1ccccc1Cl`, the 90% effect concentration (IC90) was 9.4 µM. The pIC50 (FFLUC_HILL_SLOPE 16.1, FFLUC_R_SQUARED 0.664, PBLUC_HILL_SLOPE 12.5, PBLUC_R_SQUARED 0.559, read-out: LUCIFERASE INFECTION ASSAY - IC50) was 5.10.

For the compound `CCOc1ccc(NC(=S)N/N=C2/C(=O)c3cccc4cccc2c34)cc1`, the IC90 was > 10 µM. Also, under “FFLUC_HILL_SLOPE 16.1, FFLUC_R_SQUARED 0.465, PBLUC_HILL_SLOPE 2.76, PBLUC_R_SQUARED 0.814, read-out: LUCIFERASE INFECTION ASSAY - IC50”, the pIC50 was 5.34.

Consider `O=C(CN1CCC(c2c[nH]c3ccccc23)CC1)Nc1ccc(Cl)c([N+](=O)[O-])c1`, for which the IC90 was 9.15 µM. For the same compound, the negative logarithm of the IC50 (pIC50) (FFLUC_HILL_SLOPE 16.3, FFLUC_R_SQUARED 0.426, PBLUC_HILL_SLOPE 3.46, PBLUC_R_SQUARED 0.601, read-out: LUCIFERASE INFECTION ASSAY - IC50) was 5.31.

As to `CCC(C)c1ccc(NC(=O)c2ccc[nH]c2=S)cc1` (stereo unspecified), the IC90 is > 10 µM. For the same compound, where the note is “FFLUC_HILL_SLOPE 16.3, FFLUC_R_SQUARED 0.684, PBLUC_HILL_SLOPE 0.824, PBLUC_R_SQUARED 0.804, read-out: LUCIFERASE INFECTION ASSAY - IC50”, the negative logarithm of the IC50 (pIC50) is 5.15.

For `Cn1c(C(C#N)c2nc(C#N)c(C#N)nc2Cl)nc2ccccc21` (stereo unspecified), the 90% effect concentration (IC90) was > 10 µM. For the setting “FFLUC_HILL_SLOPE 16, FFLUC_R_SQUARED 0.432, read-out: LUCIFERASE INFECTION ASSAY - IC50”, the pIC50 is < 5.00.

On to `O=c1cc(NCCC2=CCCCC2)c2ccccc2o1`, for which the 90% effect concentration (IC90) amounted to 3.21 µM. For the same compound, the pIC50 (FFLUC_HILL_SLOPE 16, FFLUC_R_SQUARED 0.221, HEPG2TOX_HILL_SLOPE 2.34, HEPG2TOX_R_SQUARED 0.809, PBLUC_HILL_SLOPE 2.17, PBLUC_R_SQUARED 0.461, read-out: LUCIFERASE INFECTION ASSAY - IC50) was 5.93.

In the case of `Cc1ccc(/C=N/n2c(-c3cc(C)c(C)cc3C)cs/c2=N\CC2CCCO2)o1` (stereo unspecified), the IC90 came out at 3.52 µM. For the same compound, the pIC50 (FFLUC_HILL_SLOPE 16.3, FFLUC_R_SQUARED 0.0442, HEPG2TOX_HILL_SLOPE 1.44, HEPG2TOX_R_SQUARED 0.874, PBLUC_HILL_SLOPE 40.1, PBLUC_R_SQUARED 0.415, read-out: LUCIFERASE INFECTION ASSAY - IC50) was 5.48.

As to `COCCNC(=O)c1ccc(C2(CNc3ccc(OC)c(OC)c3)CC2)cc1`, the IC90 worked out at 1.89 µM. Further, the negative-log IC50 (pIC50) (FFLUC_HILL_SLOPE 16.1, FFLUC_R_SQUARED 0.266, PBLUC_HILL_SLOPE 1.26, PBLUC_R_SQUARED 0.621, read-out: LUCIFERASE INFECTION ASSAY - IC50) was 6.48.

On to `O=[N+]([O-])c1cnc(Sc2nnc(-c3ccco3)n2-c2ccc(OCc3ccccc3)cc2)s1`, for which the IC90 was > 6.91 µM. Moreover, for the setting “FFLUC_HILL_SLOPE 16.1, FFLUC_R_SQUARED 0.469, read-out: LUCIFERASE INFECTION ASSAY - IC50”, the pIC50 was < 5.16.

For the compound `CCCCCCCc1ccc(C(=O)Nc2ccc(F)c(Cl)c2)cc1`, the 90% effect concentration (IC90) is > 9.49 µM. The pIC50 (FFLUC_HILL_SLOPE 16.3, FFLUC_R_SQUARED 0.0372, PBLUC_HILL_SLOPE 1.73, PBLUC_R_SQUARED 0.521, read-out: LUCIFERASE INFECTION ASSAY - IC50) is 5.31.

In the case of `FC(F)(F)c1nc2ccccc2nc1-n1nccc1-c1ccc(Cl)cc1`, the IC90 was > 8.81 µM. Further, the negative-log IC50 (pIC50) (FFLUC_HILL_SLOPE 16.3, FFLUC_R_SQUARED 0.637, HEPG2TOX_HILL_SLOPE 7.13, HEPG2TOX_R_SQUARED 0.448, PBLUC_HILL_SLOPE 3.24, PBLUC_R_SQUARED 0.732, read-out: LUCIFERASE INFECTION ASSAY - IC50) was 5.29.

`FC(F)(F)Oc1ccc(Nc2n[nH]c(=S)s2)cc1`: the 90% effect concentration (IC90) was 5 µM. The pIC50 (FFLUC_HILL_SLOPE 16.2, FFLUC_R_SQUARED 0.24, PBLUC_HILL_SLOPE 2.38, PBLUC_R_SQUARED 0.611, read-out: LUCIFERASE INFECTION ASSAY - IC50) is 5.70.

Turning to `CCOC(=O)Cc1nn(Cc2nc(-c3ccc4c(c3)C(C)(C)CCC4(C)C)cs2)c(=O)c2ccccc12`, the concentration for an effect of 90% (IC90) amounted to 2.02 µM. Besides, the negative logarithm of the IC50 (pIC50) (FFLUC_HILL_SLOPE 16.2, FFLUC_R_SQUARED 0.167, PBLUC_HILL_SLOPE 1.27, PBLUC_R_SQUARED 0.666, read-out: LUCIFERASE INFECTION ASSAY - IC50) was 6.45.

For the compound `CCN1N=C(c2ccc(OC)cc2)c2ccc(OC)c3cccc1c23`, the IC90 is 8.69 µM. In addition, the negative-log IC50 (pIC50) (FFLUC_HILL_SLOPE 16.1, FFLUC_R_SQUARED 0.71, HEPG2TOX_HILL_SLOPE 5.83, HEPG2TOX_R_SQUARED 0.386, PBLUC_HILL_SLOPE 3.16, PBLUC_R_SQUARED 0.408, read-out: LUCIFERASE INFECTION ASSAY - IC50) is 5.36.

Turning to `Cc1nn2c(nc(NCc3ccc(Cn4ccnc4)cc3)c3ccccc32)c1Cl`, the IC90 was > 10 µM. Moreover, where the note is “FFLUC_HILL_SLOPE 16.1, FFLUC_R_SQUARED 0.458, read-out: LUCIFERASE INFECTION ASSAY - IC50”, the pIC50 is < 5.00.

For the compound `CC(C)c1cccc(C(C)C)c1NC(=O)COc1ccc(CCO)cc1-n1nc2ccccc2n1`, the IC90 was 6.85 µM. In addition, the negative-log IC50 (pIC50) (FFLUC_HILL_SLOPE 16.3, FFLUC_R_SQUARED 0.284, PBLUC_HILL_SLOPE 3.54, PBLUC_R_SQUARED 0.756, read-out: LUCIFERASE INFECTION ASSAY - IC50) was 5.43.

With `COC(=O)c1c(C)[nH]c(C(=O)C(C)Sc2nnc(Cc3cccc4ccccc34)n2C2CCCCC2)c1C` (stereo unspecified), the IC90 was > 10 µM. Further, the negative-log IC50 (pIC50) (FFLUC_HILL_SLOPE 16.1, FFLUC_R_SQUARED 0.161, read-out: LUCIFERASE INFECTION ASSAY - IC50) is < 5.00.

As to `CCCNC(=O)c1c(NC(=O)c2ccc(C(F)(F)F)cc2)nc2ccccn12`, the 90% effect concentration (IC90) worked out at 0.441 µM. The pIC50 (FFLUC_HILL_SLOPE 16.1, FFLUC_R_SQUARED 0.832, HEPG2TOX_HILL_SLOPE 0.765, HEPG2TOX_R_SQUARED 0.858, PBLUC_HILL_SLOPE 8.91, PBLUC_R_SQUARED 0.524, read-out: LUCIFERASE INFECTION ASSAY - IC50) was 6.46.

`O=C(N/N=C/c1ccccc1C(F)(F)F)c1[nH]c2ccccc2c1-c1ccccc1`: the 90% effect concentration (IC90) worked out at 1.07 µM. For the same compound, the pIC50 (FFLUC_HILL_SLOPE 16.3, FFLUC_R_SQUARED 0.334, HEPG2TOX_HILL_SLOPE 1.94, HEPG2TOX_R_SQUARED 0.976, PBLUC_HILL_SLOPE 7.87, PBLUC_R_SQUARED 0.839, read-out: LUCIFERASE INFECTION ASSAY - IC50) is 6.09.

As to `CC1c2ccsc2CCN1C(=S)NC(=O)c1cccs1` (stereo unspecified), the concentration for an effect of 90% (IC90) is > 10.2 µM. In addition, the negative-log IC50 (pIC50) (FFLUC_HILL_SLOPE 16.3, FFLUC_R_SQUARED 0.288, HEPG2TOX_HILL_SLOPE 6.88, HEPG2TOX_R_SQUARED 0.689, PBLUC_HILL_SLOPE 3.81, PBLUC_R_SQUARED 0.3, read-out: LUCIFERASE INFECTION ASSAY - IC50) was 5.21.

On to `Cc1nc(Nc2ccc(C(=O)N(C)C)cc2)c2c(-c3ccccc3)csc2n1`, for which the IC90 was found to be 8.69 µM. Besides, for the setting “FFLUC_HILL_SLOPE 16.2, FFLUC_R_SQUARED 0.398, PBLUC_HILL_SLOPE 15.9, 4.17, PBLUC_R_SQUARED 0.757, 0.868, read-out: LUCIFERASE INFECTION ASSAY - IC50”, the pIC50 was 5.13.

`Cc1cc(C(=O)C(C)OC(=O)c2ccc(S(=O)(=O)N3CC(C)CC(C)C3)cc2)c(C)n1-c1ccc(Cl)cc1` (stereo unspecified): the 90% effect concentration (IC90) was 3.47 µM. Further, the pIC50 (FFLUC_HILL_SLOPE 16.1, FFLUC_R_SQUARED 0.63, HEPG2TOX_HILL_SLOPE 1.41, HEPG2TOX_R_SQUARED 0.912, PBLUC_HILL_SLOPE 53.4, PBLUC_R_SQUARED 0.359, read-out: LUCIFERASE INFECTION ASSAY - IC50) was 5.48.
